# Measurements as given in patent US20250255874A1, “Methods for Treating Immune Thrombocytopenia By Administering (R)-2-[3-[4-Amino-3-(2-Fluoro-4-Phenoxy-Phenyl)Pyrazolo[3,4-D]Pyrimidin-1-YL]Piperidine-1-Carbonyl]-4-Methyl-4-[4-(Oxetan-3-YL)Piperazin-1-YL]Pent-2-Enentrile” (Principia Biopharma Inc., priority 2022, published 2025).
# System: patients with relapsed/refractory immune thrombocytopenia
# Experiment: Phase 1/2 study (NCT03395210) Part A, safety;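 further: adverse events graded by NCI CTCAE version 4.0, with worsening of pre-existing conditions counted as adverse events, analysed in the Safety Population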
# Conditions: Safety Population; N = 60
smiles,measurement,value
"CC(C)(C=C(C#N)C(=O)N1CCC[C@@H](n2nc(-c3ccc(Oc4ccccc4)cc3F)c3c(N)ncnc32)C1)N1CCN(C2COC2)CC1 [rilzabrutinib, (R)-2-[3-[4-amino-3-(2-fluoro-4-phenoxy-phenyl)pyrazolo[3,4-d]pyrimidin-1-yl]piperidine-1-carbonyl]-4-methyl-4-[4-(oxetan-3-yl)piperazin-1-yl]pent-2-enenitrile]","Back pain, TEAEs Due to Any Cause, Grade 2",1 (2) number of patients (percent)
same,"Back pain, Treatment-Related TEAEs, Any grade",1 (2) number of patients (percent)
same,"Back pain, Treatment-Related TEAEs, Grade 2",1 (2) number of patients (percent)
same,"Conjunctival hemorrhage, TEAEs Due to Any Cause, Any grade",5 (8) number of patients (percent)
same,"Conjunctival hemorrhage, TEAEs Due to Any Cause, Grade 1",5 (8) number of patients (percent)
same,"Contusion, TEAEs Due to Any Cause, Any grade",11 (18) number of patients (percent)
same,"Contusion, TEAEs Due to Any Cause, Grade 1",7 (12) number of patients (percent)
same,"Contusion, TEAEs Due to Any Cause, Grade 2",3 (5) number of patients (percent)
same,"Contusion, TEAEs Due to Any Cause, Grade 3/4",1 (2) number of patients (percent)
same,"Contusion, Treatment-Related TEAEs, Any grade",1 (2) number of patients (percent)
same,"Contusion, Treatment-Related TEAEs, Grade 1",1 (2) number of patients (percent)
same,"Costochondritis, TEAEs Due to Any Cause, Any grade",2 (3) number of patients (percent)
same,"Costochondritis, TEAEs Due to Any Cause, Grade 1",2 (3) number of patients (percent)
same,"Cough, TEAEs Due to Any Cause, Any grade",2 (3) number of patients (percent)
same,"Cough, TEAEs Due to Any Cause, Grade 1",2 (3) number of patients (percent)
same,"Decreased appetite, TEAEs Due to Any Cause, Any grade",1 (2) number of patients (percent)
same,"Decreased appetite, TEAEs Due to Any Cause, Grade 1",1 (2) number of patients (percent)
same,"Decreased appetite, Treatment-Related TEAEs, Any grade",1 (2) number of patients (percent)
same,"Decreased appetite, Treatment-Related TEAEs, Grade 1",1 (2) number of patients (percent)
same,"Defecation urgency, TEAEs Due to Any Cause, Any grade",1 (2) number of patients (percent)
same,"Defecation urgency, TEAEs Due to Any Cause, Grade 2",1 (2) number of patients (percent)
same,"Defecation urgency, Treatment-Related TEAEs, Any grade",1 (2) number of patients (percent)
same,"Defecation urgency, Treatment-Related TEAEs, Grade 2",1 (2) number of patients (percent)
same,"Diarrhea, TEAEs Due to Any Cause, Any grade",22 (37) number of patients (percent)
same,"Diarrhea, TEAEs Due to Any Cause, Grade 1",19 (32) number of patients (percent)
same,"Diarrhea, TEAEs Due to Any Cause, Grade 2",3 (5) number of patients (percent)
same,"Diarrhea, Treatment-Related TEAEs, Any grade",19 (32) number of patients (percent)
same,"Diarrhea, Treatment-Related TEAEs, Grade 1",16 (27) number of patients (percent)
same,"Diarrhea, Treatment-Related TEAEs, Grade 2",3 (5) number of patients (percent)
same,"Dizziness, TEAEs Due to Any Cause, Any grade",2 (3) number of patients (percent)
same,"Dizziness, TEAEs Due to Any Cause, Grade 1",2 (3) number of patients (percent)
same,"Dyspepsia, TEAEs Due to Any Cause, Any grade",4 (7) number of patients (percent)
same,"Dyspepsia, TEAEs Due to Any Cause, Grade 1",3 (5) number of patients (percent)
same,"Dyspepsia, TEAEs Due to Any Cause, Grade 2",1 (2) number of patients (percent)
same,"Dyspepsia, Treatment-Related TEAEs, Any grade",1 (2) number of patients (percent)
same,"Dyspepsia, Treatment-Related TEAEs, Grade 1",1 (2) number of patients (percent)
same,"Dyspnea exertional, TEAEs Due to Any Cause, Any grade",2 (3) number of patients (percent)
same,"Dyspnea exertional, TEAEs Due to Any Cause, Grade 1",2 (3) number of patients (percent)
same,"Dyspnea, TEAEs Due to Any Cause, Any grade",2 (3) number of patients (percent)
same,"Dyspnea, TEAEs Due to Any Cause, Grade 1",2 (3) number of patients (percent)
same,"Edema, TEAEs Due to Any Cause, Any grade",2 (3) number of patients (percent)
same,"Edema, TEAEs Due to Any Cause, Grade 1",2 (3) number of patients (percent)
same,"Edema, Treatment-Related TEAEs, Any grade",1 (2) number of patients (percent)
same,"Edema, Treatment-Related TEAEs, Grade 1",1 (2) number of patients (percent)
same,"Epigastric discomfort, TEAEs Due to Any Cause, Any grade",1 (2) number of patients (percent)
same,"Epigastric discomfort, TEAEs Due to Any Cause, Grade 2",1 (2) number of patients (percent)
same,"Epigastric discomfort, Treatment-Related TEAEs, Any grade",1 (2) number of patients (percent)
same,"Epigastric discomfort, Treatment-Related TEAEs, Grade 2",1 (2) number of patients (percent)
same,"Epistaxis, TEAEs Due to Any Cause, Any grade",2 (3) number of patients (percent)
same,"Epistaxis, TEAEs Due to Any Cause, Grade 1",2 (3) number of patients (percent)
same,"Erysipelas, TEAEs Due to Any Cause, Any grade",1 (2) number of patients (percent)
same,"Erysipelas, TEAEs Due to Any Cause, Grade 2",1 (2) number of patients (percent)
same,"Erysipelas, Treatment-Related TEAEs, Any grade",1 (2) number of patients (percent)
same,"Erysipelas, Treatment-Related TEAEs, Grade 2",1 (2) number of patients (percent)
same,"Fatigue, TEAEs Due to Any Cause, Any grade",12 (20) number of patients (percent)
same,"Fatigue, TEAEs Due to Any Cause, Grade 1",10 (17) number of patients (percent)
